According to patent US12084472B2 (Ardelyx, Inc., priority 2015, dated 2024):

Molecular target: T1, human TGR5 (Homo sapiens, UniProt Q8TDU6)
T1 construct: expressed in transfected cells; host or cells: HEK293
T1 sequence (Q8TDU6 1-330): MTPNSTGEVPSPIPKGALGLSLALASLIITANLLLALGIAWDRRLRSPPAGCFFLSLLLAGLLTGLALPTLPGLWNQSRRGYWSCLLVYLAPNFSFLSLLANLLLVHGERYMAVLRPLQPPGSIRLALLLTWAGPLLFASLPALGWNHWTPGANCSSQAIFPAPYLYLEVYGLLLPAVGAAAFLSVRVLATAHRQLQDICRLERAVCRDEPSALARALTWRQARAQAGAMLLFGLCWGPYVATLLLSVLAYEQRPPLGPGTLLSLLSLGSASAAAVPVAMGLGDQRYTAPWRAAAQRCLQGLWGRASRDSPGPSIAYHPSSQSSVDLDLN
Assay: Cell-based TGR5 assay (cAMP generation, HTRF)
Details: HEK293 cells stably transfected with human TGR5; cAMP by HTRF; 30 minutes at 37° C.; read-out: pEC50 Human TGR5 (converted)
Outline: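 Read-out was HTRF detection of cAMP, converted to concentration via a standard curve and fitted (3-parameter logistic) for pEC50 and maximal response. Agonist stimulation used HEK293 cells stably transfected with human TGR5, incubated 30 min at 37° C in IBMX-containing buffer at 0.05 nM to 10 μM compound.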

SMILES	EC50
Cc1ccc(C(C)CCCC(=O)N(CC(N)=O)C[C@H](O)[C@@H](O)[C@H](O)[C@H](O)CO)cc1CNC1(c2cnccc2-c2ccccc2OC2CC2)CC1 (stereo partly drawn) [Compound I-356, N-(carbamoylmethyl)-5-{3-[({1-[4-(2-cyclopropoxyphenyl)pyridin-3-yl]cyclopropyl}amino)methyl]-4-methylphenyl}-N-[(2S,3R,4R,5R)-2,3,4,5,6-pentahydroxyhexyl]hexanamide]	< 100 nM
CN(C)CC(=O)N(CCCCc1cc(Cl)c(COC2(c3cnccc3-c3ccccc3OC3CC3)CC2)cc1Cl)C[C@H](O)[C@@H](O)[C@H](O)[C@H](O)CO [Compound I-203, N-{4-[2,5-dichloro-4-({1-[4-(2-cyclopropoxyphenyl)pyridin-3-yl]cyclopropoxy}methyl)phenyl]butyl}-2-(dimethylamino)-N-[(2S,3R,4R,5R)-2,3,4,5,6-pentahydroxyhexyl]acetamide]	< 100 nM
CSc1cnc(CNC2(c3cnccc3-c3ccccc3OC3CC3)CC2)c(C)c1 [Compound I-39, 1-[4-(2-cyclopropoxyphenyl)pyridin-3-yl]-N-{[3-methyl-5-(methylsulfanyl)pyridin-2-yl]methyl}cyclopropan-1-amine]	126 to 1000 nM
O=C([C@@H](O)[C@@H](O)[C@H](O)[C@@H](O)CO)N(CCCSc1ccc(Cl)c(CNC2(c3cnccc3-c3ccccc3OC3CC3)CC2)c1)C1CCOCC1 [Compound I-528, (2S,3S,4R,5S)-N-[3-({4-chloro-3-[({1-[4-(2-cyclopropoxyphenyl)pyridin-3-yl]cyclopropyl}amino)methyl]phenyl}sulfanyl)propyl]-2,3,4,5,6-pentahydroxy-N-(oxan-4-yl)hexanamide]	126 to 1000 nM
CC(CCCC(=O)O)c1ccc(Cl)c(CNC2(c3cnccc3-c3ccccc3OC3CC3)CC2)c1 (single isomer, unassigned) [Compound I-248]	< 100 nM
O=C([C@@H](O)[C@@H](O)[C@H](O)[C@@H](O)CO)N(CCCCCSc1ccc(Cl)c(COC2(c3cnccc3-c3ccccc3OC3CC3)CC2)c1)CCOCCO [Compound I-489, (2S,3S,4R,5S)-N-(5-[[4-chloro-3-([1-[4-(2-cyclopropoxyphenyl)pyridin-3-yl]cyclopropoxy]methyl)phenyl]sulfanyl]pentyl)-2,3,4,5,6-pentahydroxy-N-[2-(2-hydroxyethoxy)ethyl]hexanamide]	< 100 nM
O=C([C@@H](O)[C@@H](O)[C@H](O)[C@@H](O)CO)N(CCCCc1cc(Cl)c(COC2(c3cnccc3-c3ccccc3OC3CC3)CC2)cc1Cl)C1CCOCC1 [Compound I-216, (2S,3S,4R,5S)-N-{4-[2,5-dichloro-4-({1-[4-(2-cyclopropoxyphenyl)pyridin-3-yl]cyclopropoxy}methyl)phenyl]butyl}-2,3,4,5,6-pentahydroxy-N-(oxan-4-yl)hexanamide]	126 to 1000 nM
Cc1ccc(CCCCNC(=O)N(C)C[C@H](O)[C@@H](O)[C@H](O)[C@H](O)CO)nc1CNC1(c2cnccc2-c2ccccc2OC2CC2)CC1 [Compound I-706]	1260 to 10000 nM
CN(C[C@H](O)[C@@H](O)[C@H](O)[C@H](O)CO)C(=O)c1ccc(CSc2ccc(Cl)c(CNC3(c4cnccc4-c4ccccc4OC4CC4)CC3)c2)cc1 [Compound I-680, 4-[({4-chloro-3-[({1-[4-(2-cyclopropoxyphenyl)pyridin-3-yl]cyclopropyl}amino)methyl]phenyl}sulfanyl)methyl]-N-methyl-N-[(2S,3R,4R,5R)-2,3,4,5,6-pentahydroxyhexyl]benzamide]	126 to 1000 nM
Cc1ccc(C(CO)CCCNC(=O)[C@@H](O)[C@@H](O)[C@H](O)[C@@H](O)CO)cc1CNC1(c2cnccc2-c2ccccc2OC2CC2)CC1 (stereo partly drawn) [Compound I-386, (2S,3S,4R,5S)-N-(4-{3-[({1-[4-(2-cyclopropoxyphenyl)pyridin-3-yl]cyclopropyl}amino)methyl]-4-methylphenyl}-5-hydroxypentyl)-2,3,4,5,6-pentahydroxyhexanamide]	< 100 nM
Cc1cc(COC2(c3cnccc3-c3ccccc3OC3CC3)CC2)c(Cl)cc1CCCCNC(=O)NCC(=O)NCC(=O)NCC(=O)O [Compound I-111, 2-(2-{2-[({4-[5-chloro-4-({1-[4-(2-cyclopropoxyphenyl)pyridin-3-yl]cyclopropoxy}methyl)-2-methylphenyl]butyl}carbamoyl)amino]acetamido}acetamido)acetic acid]	< 100 nM
CC(CCCC(=O)N(C)C[C@H](O)[C@@H](O)[C@H](O)[C@H](O)CO)c1cc(Cl)c(COC2(c3cnccc3-c3ccccc3OC3CC3)CC2)cc1Cl (stereo partly drawn) [Compound I-162, 5-[2,5-dichloro-4-({1-[4-(2-cyclopropoxyphenyl)pyridin-3-yl]cyclopropoxy}methyl)phenyl]-N-methyl-N-[(2S,3R,4R,5R)-2,3,4,5,6-pentahydroxyhexyl]hexanamide]	< 100 nM
O=C(CCCSc1ccc(Cl)c(COC2(c3cnccc3-c3ccccc3OC3CC3)CC2)c1)N(CCOCCO)C[C@H](O)[C@@H](O)[C@H](O)[C@H](O)CO [Compound I-683, 4-{[4-chloro-3-({1-[4-(2-cyclopropoxyphenyl)pyridin-3-yl]cyclopropoxy}methyl)phenyl]sulfanyl}-N-[2-(2-hydroxyethoxy)ethyl]-N-[(2S,3R,4R,5R)-2,3,4,5,6-pentahydroxyhexyl]butanamide]	126 to 1000 nM

Next, values leading:

EC50	SMILES
< 100 nM	CN(C[C@H](O)[C@@H](O)[C@H](O)[C@H](O)CO)C(=O)CCCSc1ccc(Cl)c(COC2(c3cnccc3-c3ccccc3OC3CC3)CC2)c1 [Compound I-648, 4-{[4-chloro-3-({1-[4-(2-cyclopropoxyphenyl)pyridin-3-yl]cyclopropoxy}methyl)phenyl]sulfanyl}-N-methyl-N-[(2S,3R,4R,5R)-2,3,4,5,6-pentahydroxyhexyl]butanamide]
< 100 nM	Cc1ccc(C(C)CCCCNC(=O)NC[C@H](O)[C@@H](O)[C@H](O)[C@H](O)CO)cc1CNC1(c2cnccc2-c2ccccc2OC2CC2)CC1 (stereo partly drawn) [Compound I-272, 1-(5-{3-[({1-[4-(2-cyclopropoxyphenyl)pyridin-3-yl]cyclopropyl}amino)methyl]-4-methylphenyl}hexyl)-3-[(2S,3R,4R,5R)-2,3,4,5,6-pentahydroxyhexyl]urea]
< 100 nM	O=C(CCCC1CN(S(=O)(=O)c2ccc(Cl)c(COC3(c4cnccc4-c4ccccc4OC4CC4)CC3)c2)C1)NC[C@H](O)[C@@H](O)[C@H](O)[C@H](O)CO [Compound I-453, 4-{1-[4-chloro-3-({1-[4-(2-cyclopropoxyphenyl)pyridin-3-yl]cyclopropoxy}methyl)benzenesulfonyl]azetidin-3-yl}-N-[(2S,3R,4R,5R)-2,3,4,5,6-pentahydroxyhexyl]butanamide]
< 100 nM	CC(=O)NCCCN(CCCCSc1ccc(Cl)c(COC2(c3cnccc3-c3ccccc3OC3CC3)CC2)c1)C(=O)[C@@H](O)[C@@H](O)[C@H](O)[C@@H](O)CO [Compound I-566, (2S,3S,4R,5S)-N-(4-{[4-chloro-3-({1-[4-(2-cyclopropoxyphenyl)pyridin-3-yl]cyclopropoxy}methyl)phenyl]sulfanyl}butyl)-N-(3-acetamidopropyl)-2,3,4,5,6-pentahydroxyhexanamide]
< 100 nM	O=C(NCCCCNS(=O)(=O)c1ccc(Cl)c(COC2(c3cnccc3-c3ccccc3OC3CC3)CC2)c1)NC[C@H](O)[C@@H](O)[C@H](O)[C@H](O)CO (stereo in doubt) [Compound I-401, 1-{4-[4-chloro-3-({1-[4-(2-cyclopropoxyphenyl)pyridin-3-yl]cyclopropoxy}methyl)benzenesulfonamido]butyl}-3-[(2S,3R,4R,5R)-2,3,4,5,6-pentahydroxyhexyl]urea]
< 100 nM	O=C(NCCCSc1ccc(Cl)c(COC2(c3cnccc3-c3ccccc3OC3CC3)CC2)c1)NC[C@H](O)[C@@H](O)[C@H](O)[C@H](O)CO [Compound I-625, 1-(3-{[4-chloro-3-({1-[4-(2-cyclopropoxyphenyl)pyridin-3-yl]cyclopropoxy}methyl)phenyl]sulfanyl}propyl)-3-[(2S,3R,4R,5R)-2,3,4,5,6-pentahydroxyhexyl]urea]
< 100 nM	CN(CCCCNC(=O)NC[C@H](O)[C@@H](O)[C@H](O)[C@H](O)CO)S(=O)(=O)c1cc(COC2(c3cnccc3-c3ccccc3OC3CC3)CC2)c(Cl)cc1Cl [Compound I-467, 1-{4-[N-methyl2,4-dichloro-5-({1-[4-(2-cyclopropoxyphenyl)pyridin-3-yl]cyclopropoxy}methyl)benzenesulfonamido]butyl}-3-[(2S,3R,4R,5R)-2,3,4,5,6-pentahydroxyhexyl]urea]
< 100 nM	Cc1cc(COC2(c3cnccc3-c3ccccc3OC3CC3)CC2)c(Cl)cc1CCCCC(=O)N(C)C[C@H](O)[C@@H](O)[C@H](O)[C@H](O)CO [Compound I-146, 5-[5-chloro-4-({1-[4-(2-cyclopropoxyphenyl)pyridin-3-yl]cyclopropoxy}methyl)-2-methylphenyl]-N-methyl-N-[(2S,3R,4R,5R)-2,3,4,5,6-pentahydroxyhexyl]pentanamide]
< 100 nM	CS(=O)(=O)CCCN(CCCCSc1ccc(Cl)c(COC2(c3cnccc3-c3ccccc3OC3CC3)CC2)c1)C(=O)[C@@H](O)[C@@H](O)[C@H](O)[C@@H](O)CO [Compound I-523, (2S,3S,4R,5S)-N-(4-{[4-chloro-3-({1-[4-(2-cyclopropoxyphenyl)pyridin-3-yl]cyclopropoxy}methyl)phenyl]sulfanyl}butyl)-2,3,4,5,6-pentahydroxy-N-(3-methanesulfonylpropyl)hexanamide]
